Experimental data as given in patent publication US12692253B2, “Antimicrobial compounds and methods” (Curza Global, LLC, priority 2019, dated 2026).

Tests used:
[1] = tested on: E. coli S30 extract (bacterial protein synthesis); test: E. coli S30 extract coupled transcription-translation luciferase assay (inhibition of bacterial protein synthesis); assay type: biochemical; details: class by IC50 or % inhibition @ 1 μM, read-out: S30 IC50 (μM/% inhib.)
Procedure: E. coli S30 extract: Inhibition of bacterial protein synthesis was determined using the E. coli S30 Extract System for Circular DNA (Promega catalog #L-2010) and Luciferase Assay Reagent (Promega catalog #E1500) with slight modifications to a published protocol. Fyfe, C., Sutcliffe, J. A. and Grossman, T. H. (2012) “Development and characterization of a Pseudomonas aeruginosa in vitro coupled transcription-translation assay system for evaluation of translation inhibitors” J. Microbiol. Methods 90(3), 256-261.
Compounds were serial diluted in 0.5 mL microcentrifuge tubes by mixing and transferring 50 μL from the highest concentration to 50 μL of water, mixing and transferring 50 μL of this 2-fold dilution to 50 μL of water. This mixing and transferring was repeated so that there are a total of 8 tubes with serial dilutions of compound at 10× the desired screening concentration that are ultimately diluted to 1× by the addition of S30 luciferase synthesis mixture. Serial dilutions of compounds were added (2 μL) to wells in a black round bottom 96-well plate. Water (2 μL) was used as a “no inhibitor” control in 4 wells/plate. No DNA control reaction mixture (20 μL; see below) was used as a control in 4 wells/plate for background luminescence. S30 luciferase synthesis mixture (18 μL; see below) was added to wells with compounds or water mixture and incubated at 37° C. for 1 hour. Reactions were stopped by transferring to 4° C. refrigerator for 5 minutes then 25 μL of luciferase activity mix was added. Luminescence was measured using a BioTek Synergy HTX plate reader. % Inhibition was determined relative to no inhibitor controls. • S30 luciferase synthesis mixture: • 445 μL S30 extract, circular • 712 μL S30 Premix without amino acids • 4.45 μL pBESTluc™ DNA (1 μg/μL) • 78 μL complete amino acid mixture • 267 μL water • No DNA control: • 20 μL S30 extract, circular • 32 μL S30 Premix without amino acids • 7 μL complete amino acid mixture • 21 μL water Rabbit Reticulocyte lysate

A. baumannn (Ab) = test: Broth microdilution minimum inhibitory concentration (MIC), CLSI; assay type: cell-based; details: for MIC: Acinetobacter baumannii, read-out: Ab + bicarb MIC; for Ab + bicarb MIC: A. baumannii, growth medium supplemented with sodium bicarbonate
Procedure: (§1) A certified BSL-2 laboratory was used for testing. Compounds were evaluated using the broth microdilution minimum inhibitory concentration (MIC) and minimum bactericidal concentration (MBC) assays defined by Clinical and Laboratory Standards Institute (CLSI) in the M26-A guideline against S. aureus (Sa), E. coli (Ec), K. pneumoniae (Kp), A. baumannn (Ab), E. faecalis (Ef) and P. aeruginosa (Pa).
(§2) MICs were determined using the Clinical Laboratory and Standards Institute (CLSI) Broth Microdilution Method with slight modification. Clinical and Laboratory Standards Institute (2012). “Methods for dilution antimicrobial susceptibility tests for bacteria that grow aerobically; approved standard, 9th ed. M07-A9 Clinical and Laboratory Standards Institute, Wayne, PA” Serial two-fold dilutions of compounds are prepared in sterile clear round-bottom 96-well plates.
(§3) To prepare microdilution trays, two-fold dilutions of antimicrobial agent are prepared in growth medium: Cation-Adjusted Mueller-Hinton Broth (CAMHB), or CAMHB supplemented with sodium bicarbonate (6.25 or 25 mM final concentration prepared from a 1.0M stock solution) or CAMHB supplemented with heat inactivated human serum (Fisher Cat. #BP2657100) 0-50% by adding 200 µL of the highest concentration to be tested (64 μg/mL, for example) in row A, mixing and transferring 100 μL from row A to 100 μL growth medium in row B, then repeating the mixing and transferring through row H of the 96-well plate, discarding the excess […] remaining. This slight modification to the CLSI protocol enables evaluation of MICs for 3 compounds per plate in triplicate, albeit with only 8 compound dilutions (CLSI protocol enables 2 compounds in triplicate with 10 dilutions). Bacterial suspensions are added to a final concentration of 5×10^4 CFU/well by adding 5 μL of a 1:10 dilution of a 0.5 McFarland suspension (1×10^8 CFU/mL) for each bacterium evaluated. Bacterial suspensions were prepared using the growth method described by CLSI. Well-isolated colonies (3-5 from an agar plate) were selected using a sterile loop and used to inoculate a tube containing 4 mL of CAMHB. The cultures are incubated at 35±2° C. until it achieves or exceeds the turbidity of the 0.5 McFarland standard, determined by measuring A600 (usually two to six hours). When growth exceeds a 0.5 McFarland standard, the turbidity is adjusted with broth to be equivalent to a 0.5 McFarland standard.

S. aureus (Sa) = test: as above; assay type: cell-based; details: growth medium supplemented with sodium bicarbonate; for MIC: Staphylococcus aureus, read-out: Sa + bicarb MIC
Procedure: as §1, §2, §3

E. faecalis (Ef) = test: as above; assay type: cell-based; details: growth medium supplemented with sodium bicarbonate; for MIC: Enterococcus faecalis, read-out: Ef + bicarb MIC
Procedure: as §1, §2, §3

P. aeruginosa (Pa) = test: as above; assay type: cell-based; details: growth medium supplemented with sodium bicarbonate; for MIC: Pseudomonas aeruginosa, read-out: Pa MIC + bicarb
Procedure: as §1, §2, §3

E. coli (Ec) = test: as above; assay type: cell-based; details: growth medium supplemented with sodium bicarbonate; for MIC: Escherichia coli, read-out: E. coli + bicarb MIC
Procedure: as §1, §2, §3

[2] = target: Rabbit Reticulocyte Lysate (eukaryotic protein synthesis); test: Rabbit reticulocyte lysate luciferase assay (inhibition of eukaryotic protein synthesis); assay type: biochemical; details: class by IC50 or % inhibition @ 1 μM, read-out: Rabbit reticulocyte IC50 (μM/% inhib.)
Procedure: Inhibition of eukaryotic protein synthesis was determined using the Rabbit Reticulocyte Lysate System, Nuclease-Treated from Promega (catalog #L-4960) with slight modifications to the manufacturer's protocol. Compounds were serial diluted in 0.5 mL microcentrifuge tubes by mixing and transferring 50 μL from the highest concentration to 50 μL of water, mixing and transferring 50 μL of this 2-fold dilution to 50 μL of water. This mixing and transferring was repeated so that there are a total of 8 tubes with serial dilutions of compound at 10× the desired screening concentration that are ultimately diluted to 1× by the addition of rabbit reticulocyte luciferase synthesis mixture. Serial dilutions of compounds were added (2.5 μL) to wells in a black round bottom 96-well plate. Water (2.5 μL) was used as a “no inhibitor” control in 4 wells/plate. No RNA control reaction mixture (2 μL; see below) was used as a control in 4 wells/plate for background luminescence. Rabbit reticulocyte luciferase synthesis mixture (22.5 μL; see below) was added to wells with compounds or water mixture and incubated at 30° C. for 90 minutes. Luciferase assay reagent (25 μL) was added with luminescence measured using a BioTek Synergy HTX plate reader. % Inhibition was determined relative to no inhibitor controls.
Rabbit Reticulocyte Luciferase Synthesis Mixture:
• 1,000 μL rabbit reticulocyte lysate • 5.7 μL Luciferase Control RNA (1 μg/μL) • 26 μL complete amino acid mixture • 395 μL water • No RNA Control • 70 μL rabbit reticulocyte lysate • 2 μL complete amino acid mixture • 28 μL water Minimum Inhibitory Concentration (MIC)

Row | SMILES | IC50 [1] [µM] | MIC (A. baumannn (Ab)) [µg/mL] | MIC (S. aureus (Sa)) [µg/mL] | MIC (E. faecalis (Ef)) [µg/mL] | MIC (P. aeruginosa (Pa)) [µg/mL] | MIC (E. coli (Ec)) [µg/mL] | IC50 [2] [µM] | Ab + bicarb MIC (A. baumannn (Ab)) | Sa + bicarb MIC (S. aureus (Sa)) | Ef + bicarb MIC (E. faecalis (Ef)) | Pa MIC + bicarb (P. aeruginosa (Pa)) | E. coli + bicarb MIC (E. coli (Ec))
1 | CC(C)(N)C(=O)N1CCN(C(=O)Nc2ccn(-c3ccc(CN4C[C@@H]5[C@@H](N)[C@@H]5C4)cc3)c(=O)n2)CC1 [Compound 3] | < 0.5 | < 8 | < 8 | < 8 | 8 to 32 | < 8 | ≥ 1 |  |  |  |  | 
2 | C[C@](N)(CO)C(=O)N1CCN(C(=O)Nc2ccn(-c3ccc(CN4C[C@@H]5[C@@H](N)[C@@H]5C4)cc3)c(=O)n2)CC1 [Compound 4] | < 0.5 | > 32 |  | < 8 | > 32 | < 8 | ≥ 1 |  |  |  |  | 
3 | CC(C)(N)C(=O)N1CCN(C(=O)Nc2ccn(-c3ccc(CN4CCC5(N)CC5C4)cc3)c(=O)n2)CC1 (stereo not shown) [Compound 13] | 0.5 to 1 | > 32 | < 8 | < 8 | > 32 | < 8 | ≥ 1 |  |  |  |  | 
4 | CC(C)(N)C(=O)N1CCN(C(=O)Nc2ccn(-c3ccc(CN4C[C@@H]5[C@H](N)[C@@H]5C4)cc3)c(=O)n2)CC1 [Compound 14] | < 0.5 | > 32 | < 8 | < 8 | > 32 | < 8 | ≥ 1 |  |  |  |  | 
5 | CC(C)(N)C(=O)N1CCN(C(=O)Nc2ccn(-c3ccc(CN4CCC5(N)CC5C4)cc3)c(=O)n2)CC1 (stereo not shown) [Compound 20] | ≥ 1 |  |  |  |  |  | ≥ 1 | + (An MIC (μg/mL) value that is 32 μg/mL or greater) | +++ (An MIC value (μg/mL) that is less than 8 μg/mL) | ++ (An MIC value (μg/mL) that is 8 μg/mL or greater and less than 32 μg/mL) | + (An MIC (μg/mL) value that is 32 μg/mL or greater) | +++ (An MIC value (μg/mL) that is less than 8 μg/mL)
6 | CC(C)(N)C(=O)N1CCN(C(=O)Nc2ccn(-c3ccc(CN4CCC5(N)CC5C4)cc3)c(=O)n2)CC1 (stereo not shown) [Compound 23] | < 0.5 |  |  |  |  |  | ≥ 1 | + (An MIC (μg/mL) value that is 32 μg/mL or greater) | +++ (An MIC value (μg/mL) that is less than 8 μg/mL) | +++ (An MIC value (μg/mL) that is less than 8 μg/mL) | + (An MIC (μg/mL) value that is 32 μg/mL or greater) | +++ (An MIC value (μg/mL) that is less than 8 μg/mL)
7 | C[C@](N)(CO)C(=O)N1CCN(C(=O)Nc2ccn(-c3ccc(CN4C[C@@H]5[C@@H](N)[C@@H]5C4)c(Cl)c3)c(=O)n2)CC1 [Compound 25] | < 0.5 | > 32 | < 8 | > 32 | > 32 | < 8 | ≥ 1 |  |  |  |  | 
8 | CC(C)(N)C(=O)N1CCN(C(=O)Nc2ccn(-c3ccc(CN4C[C@@H]5[C@@H](N)[C@@H]5C4)cc3)c(=O)n2)C(c2ccccc2)C1 (stereo partly shown) [Compound 27] | < 0.5 |  | 8 to 32 |  | > 32 | < 8 | ≥ 1 |  |  |  |  | 
9 | C[C@@H]1CN(C(=O)C(C)(C)N)CCN1C(=O)Nc1ccn(-c2ccc(CN3C[C@@H]4[C@@H](N)[C@@H]4C3)cc2)c(=O)n1 [Compound 28] | < 0.5 | > 32 | < 8 | < 8 | > 32 | < 8 | ≥ 1 |  |  |  |  | 
10 | CC(C)(N)C(=O)N1CCN(C(=O)Nc2ccn(-c3ccc(CN4CC5CCC(C4)C5N)cc3)c(=O)n2)CC1 (stereo not shown) [Compound 29] | 0.5 to 1 | > 32 | < 8 | 8 to 32 | > 32 | < 8 | ≥ 1 |  |  |  |  | 
11 | CC(C)(N)C(=O)N1CCN(C(=O)Nc2ccn(-c3ccc(CN4CC[C@H]5[C@H](N)[C@H]5C4)cc3)c(=O)n2)CC1 [Compound 30] | < 0.5 | 8 to 32 | < 8 | < 8 | 8 to 32 | < 8 | ≥ 1 |  |  |  |  | 
12 | C[C@](N)(CO)C(=O)N1CCN(C(=O)Nc2ccn(-c3ccc(CN4CC5(CC(N)C5)C4)cc3)c(=O)n2)CC1 [Compound 36] | < 0.5 | > 32 |  | > 32 | > 32 | < 8 | ≥ 1 |  |  |  |  | 
13 | CC(C)(N)C(=O)N1CCN(C(=O)Nc2ccn(-c3ccc(CN4CCC5(CCC5N)CC4)cc3)c(=O)n2)CC1 (stereo not shown) [Compound 38] | < 0.5 | > 32 |  | 8 to 32 |  |  | ≥ 1 |  |  |  |  | 
14 | CC(C)(N)C(=O)N1CCN(C(=O)Nc2ccn(-c3ccc(CN4CC5(CNC5)C4)cc3)c(=O)n2)CC1 [Compound 46] | < 0.5 |  | 8 to 32 | > 32 | > 32 | < 8 | ≥ 1 |  |  |  |  | 
15 | CC(C)(N)C(=O)N1CCN(C(=O)Nc2ccn(-c3ccc(CN4CC5(CCNCC5)C4)cc3)c(=O)n2)CC1 [Compound 81] | < 0.5 | > 32 | 8 to 32 |  | > 32 | < 8 | ≥ 1 |  |  |  |  | 
16 | C[C@](N)(CO)C(=O)N1CCN(C(=O)Nc2ccn(-c3cccc(CCN4C[C@@H]5[C@@H](N)[C@@H]5C4)c3)c(=O)n2)CC1 [Compound 89] | ≥ 1 |  | > 32 |  | > 32 | 8 to 32 |  |  |  |  |  | 
17 | CC(C)(N)C(=O)N1CCN(C(=O)Nc2ccn(-c3ccc(CCN4CCC5CC5(N)C4)cc3)c(=O)n2)CC1 (stereo not shown) [Compound 93] | < 0.5 | > 32 |  | < 8 | < 8 | < 8 | ≥ 1 |  |  |  |  | 
